≈ marks a conversion by molar mass, not a printed value.
Tests used:
Format in all cases: functional
Candida tropicalis = assay: Antifungal activity against Candida tropicalis after 7 days by serial dilution method; settings: 168 h
Pichia kudriavzevii = assay: Antifungal activity against Candida krusei 0710397 after 7 days by serial dilution method; settings: Pichia kudriavzevii, 0710397, 168 h
Candida albicans = assay: Antifungal activity against fluconazole-sensitive Candida albicans SC5314 after 24 hrs by serial dilution method; settings: SC5314, 24 h
Candida parapsilosis = assay: Antifungal activity against Candida parapsilosis ATCC 22019 after 24 hrs by serial dilution method; settings: Lodderomyces parapsilosis, ATCC 22019, 24 h
Cryptococcus neoformans = assay: Antifungal activity against Cryptococcus neoformans 32609 after 72 hrs by serial dilution method; settings: Cryptococcus neoformans, 32609, 72 h
Trichophyton rubrum = assay: Antifungal activity against Trichophyton rubrum Cmccftla after 7 days by serial dilution method; settings: 168 h
Nannizzia gypsea = assay: Antifungal activity against Microsporum gypseum Cmccfmza after 7 days by serial dilution method; settings: 168 h
Nakaseomyces glabratus = assay: Antifungal activity against Candida glabrata 537 after 24 hrs by serial dilution method; settings: Nakaseomyces glabratus, 537, 24 h
Aspergillus fumigatus = assay: Antifungal activity against Aspergillus fumigatus 07544 after 7 days by serial dilution method; settings: Aspergillus fumigatus, 07544, 168 h

Compound: Fc1ccc(OCCCn2c3c(c4cc(Cl)ccc42)CNCC3)cc1
- MIC80 (Candida tropicalis): 4 µg/mL (≈ 11.1 µM)
- MIC80 (Pichia kudriavzevii): 4 µg/mL (≈ 11.1 µM)
- MIC80 (Candida albicans): 4 µg/mL (≈ 11.1 µM)
- MIC80 (Candida parapsilosis): 4 µg/mL (≈ 11.1 µM)
- MIC80 (Cryptococcus neoformans): 4 µg/mL (≈ 11.1 µM)
- MIC80 (Trichophyton rubrum): 8 µg/mL (≈ 22.3 µM)
- MIC80 (Nannizzia gypsea): 4 µg/mL (≈ 11.1 µM)

Compound: CN1CCc2c(c3cc(C(F)(F)F)ccc3n2CCCOc2ccc(Cl)cc2)C1
- MIC80 (Candida albicans): > 64 µg/mL
- MIC80 (Candida parapsilosis): > 64 µg/mL
- MIC80 (Cryptococcus neoformans): 64 µg/mL (≈ 151 µM)
- MIC80 (Nakaseomyces glabratus): 64 µg/mL (≈ 151 µM)
- MIC80 (Aspergillus fumigatus): > 64 µg/mL
- MIC80 (Trichophyton rubrum): 64 µg/mL (≈ 151 µM)
- MIC80 (Nannizzia gypsea): 64 µg/mL (≈ 151 µM)

Compound: Fc1ccc2c(c1)c1c(n2CCCOc2c(F)cccc2F)CCNC1
- MIC80 (Candida tropicalis): 16 µg/mL (≈ 44.4 µM)
- MIC80 (Pichia kudriavzevii): 4 µg/mL (≈ 11.1 µM)
- MIC80 (Candida albicans): 4 µg/mL (≈ 11.1 µM)
- MIC80 (Candida parapsilosis): 64 µg/mL (≈ 178 µM)
- MIC80 (Cryptococcus neoformans): 8 µg/mL (≈ 22.2 µM)
- MIC80 (Trichophyton rubrum): 2 µg/mL (≈ 5.55 µM)
- MIC80 (Nannizzia gypsea): 1 µg/mL (≈ 2.77 µM)

Compound: CN1CCc2c(c3cccc(Cl)c3n2CCCOc2ccc(Cl)cc2)C1
- MIC80 (Candida albicans): 32 µg/mL (≈ 82.2 µM)
- MIC80 (Candida parapsilosis): 32 µg/mL (≈ 82.2 µM)
- MIC80 (Cryptococcus neoformans): 16 µg/mL (≈ 41.1 µM)
- MIC80 (Nakaseomyces glabratus): 32 µg/mL (≈ 82.2 µM)
- MIC80 (Aspergillus fumigatus): > 64 µg/mL
- MIC80 (Trichophyton rubrum): > 64 µg/mL
- MIC80 (Nannizzia gypsea): 16 µg/mL (≈ 41.1 µM)

Compound: COc1ccc(OCCCn2c3c(c4cc(F)ccc42)CNCC3)cc1
- MIC80 (Candida tropicalis): > 64 µg/mL
- MIC80 (Pichia kudriavzevii): 16 µg/mL (≈ 45.1 µM)
- MIC80 (Candida albicans): 8 µg/mL (≈ 22.6 µM)
- MIC80 (Candida parapsilosis): > 64 µg/mL
- MIC80 (Cryptococcus neoformans): 8 µg/mL (≈ 22.6 µM)
- MIC80 (Trichophyton rubrum): 8 µg/mL (≈ 22.6 µM)
- MIC80 (Nannizzia gypsea): 4 µg/mL (≈ 11.3 µM)

Compound: Fc1ccc2c(c1)c1c(n2CCCOc2ccc(F)c(F)c2F)CCNC1
- MIC80 (Candida tropicalis): 4 µg/mL (≈ 10.6 µM)
- MIC80 (Pichia kudriavzevii): 4 µg/mL (≈ 10.6 µM)
- MIC80 (Candida albicans): 8 µg/mL (≈ 21.1 µM)
- MIC80 (Candida parapsilosis): 64 µg/mL (≈ 169 µM)
- MIC80 (Cryptococcus neoformans): 4 µg/mL (≈ 10.6 µM)
- MIC80 (Trichophyton rubrum): 8 µg/mL (≈ 21.1 µM)
- MIC80 (Nannizzia gypsea): 4 µg/mL (≈ 10.6 µM)

Compound: CN1CCc2c(c3cc(Cl)ccc3n2CCCOc2ccc(Cl)cc2)C1
- MIC80 (Candida albicans): 64 µg/mL (≈ 164 µM)
- MIC80 (Candida parapsilosis): 16 µg/mL (≈ 41.1 µM)
- MIC80 (Cryptococcus neoformans): 8 µg/mL (≈ 20.5 µM)
- MIC80 (Nakaseomyces glabratus): 16 µg/mL (≈ 41.1 µM)
- MIC80 (Aspergillus fumigatus): > 64 µg/mL
- MIC80 (Trichophyton rubrum): > 64 µg/mL
- MIC80 (Nannizzia gypsea): 16 µg/mL (≈ 41.1 µM)

Compound: Fc1ccc2c(c1)c1c(n2CCCOc2cccc(F)c2F)CCNC1
- MIC80 (Candida tropicalis): 16 µg/mL (≈ 44.4 µM)
- MIC80 (Pichia kudriavzevii): 4 µg/mL (≈ 11.1 µM)
- MIC80 (Candida albicans): 32 µg/mL (≈ 88.8 µM)
- MIC80 (Candida parapsilosis): 4 µg/mL (≈ 11.1 µM)
- MIC80 (Cryptococcus neoformans): 32 µg/mL (≈ 88.8 µM)
- MIC80 (Trichophyton rubrum): 32 µg/mL (≈ 88.8 µM)
- MIC80 (Nannizzia gypsea): 16 µg/mL (≈ 44.4 µM)

Compound: CN1CCc2c(c3cc(Cl)ccc3n2C(=O)c2ccc(Cl)cc2)C1
- MIC80 (Candida albicans): > 64 µg/mL
- MIC80 (Candida parapsilosis): 64 µg/mL (≈ 178 µM)
- MIC80 (Cryptococcus neoformans): 32 µg/mL (≈ 89.1 µM)
- MIC80 (Nakaseomyces glabratus): 32 µg/mL (≈ 89.1 µM)
- MIC80 (Aspergillus fumigatus): > 64 µg/mL
- MIC80 (Trichophyton rubrum): 32 µg/mL (≈ 89.1 µM)
- MIC80 (Nannizzia gypsea): > 64 µg/mL

Compound: CN1CCc2c(c3cc(Cl)ccc3n2C(=O)c2cccc(Cl)c2)C1
- MIC80 (Candida albicans): > 64 µg/mL
- MIC80 (Candida parapsilosis): 64 µg/mL (≈ 178 µM)
- MIC80 (Cryptococcus neoformans): 32 µg/mL (≈ 89.1 µM)
- MIC80 (Nakaseomyces glabratus): 32 µg/mL (≈ 89.1 µM)
- MIC80 (Aspergillus fumigatus): > 64 µg/mL
- MIC80 (Trichophyton rubrum): > 64 µg/mL
- MIC80 (Nannizzia gypsea): > 64 µg/mL

Compound: CCCN1CCc2c(c3cc(Cl)ccc3n2CCCOc2ccc(Cl)cc2)C1
- MIC80 (Candida albicans): > 64 µg/mL
- MIC80 (Candida parapsilosis): 64 µg/mL (≈ 153 µM)
- MIC80 (Cryptococcus neoformans): 16 µg/mL (≈ 38.3 µM)
- MIC80 (Nakaseomyces glabratus): 16 µg/mL (≈ 38.3 µM)
- MIC80 (Aspergillus fumigatus): > 64 µg/mL
- MIC80 (Trichophyton rubrum): > 64 µg/mL
- MIC80 (Nannizzia gypsea): 16 µg/mL (≈ 38.3 µM)

Compound: CN1CCc2c(c3cc(Cl)ccc3n2Cc2ccc(Cl)cc2)C1
- MIC80 (Candida albicans): 64 µg/mL (≈ 185 µM)
- MIC80 (Candida parapsilosis): 64 µg/mL (≈ 185 µM)
- MIC80 (Cryptococcus neoformans): 16 µg/mL (≈ 46.3 µM)
- MIC80 (Nakaseomyces glabratus): 16 µg/mL (≈ 46.3 µM)
- MIC80 (Aspergillus fumigatus): 64 µg/mL (≈ 185 µM)
- MIC80 (Trichophyton rubrum): 64 µg/mL (≈ 185 µM)
- MIC80 (Nannizzia gypsea): 16 µg/mL (≈ 46.3 µM)

Compound: Cc1ccc2c(c1)c1c(n2CCCOc2ccc(F)cc2)CCNC1
- MIC80 (Candida tropicalis): 64 µg/mL (≈ 189 µM)
- MIC80 (Pichia kudriavzevii): 16 µg/mL (≈ 47.3 µM)
- MIC80 (Candida albicans): 4 µg/mL (≈ 11.8 µM)
- MIC80 (Candida parapsilosis): 16 µg/mL (≈ 47.3 µM)
- MIC80 (Cryptococcus neoformans): 16 µg/mL (≈ 47.3 µM)
- MIC80 (Trichophyton rubrum): 4 µg/mL (≈ 11.8 µM)
- MIC80 (Nannizzia gypsea): 4 µg/mL (≈ 11.8 µM)

Compound: CN1CCc2c(c3cc(Cl)ccc3n2C(=O)c2ccccc2Br)C1
- MIC80 (Candida albicans): > 64 µg/mL
- MIC80 (Candida parapsilosis): 64 µg/mL (≈ 159 µM)
- MIC80 (Cryptococcus neoformans): > 64 µg/mL
- MIC80 (Nakaseomyces glabratus): > 64 µg/mL
- MIC80 (Aspergillus fumigatus): > 64 µg/mL
- MIC80 (Trichophyton rubrum): > 64 µg/mL
- MIC80 (Nannizzia gypsea): > 64 µg/mL

Compound: Cc1cccc(OCCCn2c3c(c4cc(F)ccc42)CNCC3)c1
- MIC80 (Candida tropicalis): 16 µg/mL (≈ 47.3 µM)
- MIC80 (Pichia kudriavzevii): 16 µg/mL (≈ 47.3 µM)
- MIC80 (Candida albicans): 8 µg/mL (≈ 23.6 µM)
- MIC80 (Candida parapsilosis): 4 µg/mL (≈ 11.8 µM)
- MIC80 (Cryptococcus neoformans): 8 µg/mL (≈ 23.6 µM)
- MIC80 (Trichophyton rubrum): 4 µg/mL (≈ 11.8 µM)
- MIC80 (Nannizzia gypsea): 4 µg/mL (≈ 11.8 µM)

Compound: Fc1ccc(OCCCCCn2c3c(c4cc(F)ccc42)CNCC3)cc1
- MIC80 (Candida tropicalis): 4 µg/mL (≈ 10.8 µM)
- MIC80 (Pichia kudriavzevii): 4 µg/mL (≈ 10.8 µM)
- MIC80 (Candida albicans): 16 µg/mL (≈ 43.2 µM)
- MIC80 (Candida parapsilosis): 16 µg/mL (≈ 43.2 µM)
- MIC80 (Cryptococcus neoformans): 16 µg/mL (≈ 43.2 µM)
- MIC80 (Trichophyton rubrum): 32 µg/mL (≈ 86.4 µM)
- MIC80 (Nannizzia gypsea): 8 µg/mL (≈ 21.6 µM)

Compound: Fc1ccc(F)c(OCCCn2c3c(c4cc(F)ccc42)CNCC3)c1
- MIC80 (Candida tropicalis): 16 µg/mL (≈ 44.4 µM)
- MIC80 (Pichia kudriavzevii): 4 µg/mL (≈ 11.1 µM)
- MIC80 (Candida albicans): 4 µg/mL (≈ 11.1 µM)
- MIC80 (Candida parapsilosis): 64 µg/mL (≈ 178 µM)
- MIC80 (Cryptococcus neoformans): 16 µg/mL (≈ 44.4 µM)
- MIC80 (Trichophyton rubrum): 8 µg/mL (≈ 22.2 µM)
- MIC80 (Nannizzia gypsea): 2 µg/mL (≈ 5.55 µM)

Compound: Fc1ccc2c(c1)c1c(n2CCCOc2ccccc2)CCNC1
- MIC80 (Candida tropicalis): 64 µg/mL (≈ 197 µM)
- MIC80 (Pichia kudriavzevii): 16 µg/mL (≈ 49.3 µM)
- MIC80 (Candida albicans): 8 µg/mL (≈ 24.7 µM)
- MIC80 (Candida parapsilosis): > 64 µg/mL
- MIC80 (Cryptococcus neoformans): 8 µg/mL (≈ 24.7 µM)
- MIC80 (Trichophyton rubrum): 8 µg/mL (≈ 24.7 µM)
- MIC80 (Nannizzia gypsea): 4 µg/mL (≈ 12.3 µM)

Compound: CN1CCc2c(c3cc(Cl)ccc3n2Cc2cccc(Cl)c2)C1
- MIC80 (Candida albicans): 64 µg/mL (≈ 185 µM)
- MIC80 (Candida parapsilosis): 32 µg/mL (≈ 92.7 µM)
- MIC80 (Cryptococcus neoformans): 16 µg/mL (≈ 46.3 µM)
- MIC80 (Nakaseomyces glabratus): 16 µg/mL (≈ 46.3 µM)
- MIC80 (Aspergillus fumigatus): 32 µg/mL (≈ 92.7 µM)
- MIC80 (Trichophyton rubrum): 8 µg/mL (≈ 23.2 µM)
- MIC80 (Nannizzia gypsea): 16 µg/mL (≈ 46.3 µM)

Compound: Fc1cc(F)c(OCCCn2c3c(c4cc(F)ccc42)CNCC3)c(F)c1
- MIC80 (Candida tropicalis): 16 µg/mL (≈ 42.3 µM)
- MIC80 (Pichia kudriavzevii): 4 µg/mL (≈ 10.6 µM)
- MIC80 (Candida albicans): 8 µg/mL (≈ 21.1 µM)
- MIC80 (Candida parapsilosis): 4 µg/mL (≈ 10.6 µM)
- MIC80 (Cryptococcus neoformans): 4 µg/mL (≈ 10.6 µM)
- MIC80 (Trichophyton rubrum): 4 µg/mL (≈ 10.6 µM)
- MIC80 (Nannizzia gypsea): 4 µg/mL (≈ 10.6 µM)

Compound: CN1CCc2c(c3cc(Cl)cc(Cl)c3n2CCCOc2ccc(Cl)cc2)C1
- MIC80 (Candida albicans): > 64 µg/mL
- MIC80 (Candida parapsilosis): > 64 µg/mL
- MIC80 (Cryptococcus neoformans): 16 µg/mL (≈ 37.8 µM)
- MIC80 (Nakaseomyces glabratus): > 64 µg/mL
- MIC80 (Aspergillus fumigatus): > 64 µg/mL
- MIC80 (Trichophyton rubrum): > 64 µg/mL
- MIC80 (Nannizzia gypsea): 16 µg/mL (≈ 37.8 µM)

Reference: ChEMBL document CHEMBL3286225, “Novel carboline derivatives as potent antifungal lead compounds: design, synthesis, and biological evaluation” (ACS Med Chem Lett, 2014)
